Here are results for two compounds from PMC10458236, “QSAR and Chemical Read-Across Analysis of 370 Potential MGMT Inactivators to Identify the Structural Features Influencing Inactivation Potency” (Pharmaceutics, 2023).

The assay deals with T1, human recombinant MGMT (O^6-methylguanine-DNA methyltransferase) (Homo sapiens, UniProt P16455).
T1 construct: recombinant
T1 sequence (P16455 1-207): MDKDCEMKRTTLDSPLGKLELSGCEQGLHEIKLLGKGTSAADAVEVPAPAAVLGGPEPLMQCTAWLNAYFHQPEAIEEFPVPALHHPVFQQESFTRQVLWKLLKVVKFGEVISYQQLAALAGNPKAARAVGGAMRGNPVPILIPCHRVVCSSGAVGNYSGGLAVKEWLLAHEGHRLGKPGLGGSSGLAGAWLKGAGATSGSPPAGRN
In words: [3H]-methylated-DNA MGMT inactivation assay. Format: biochemical.

Turning to `N#Cc1csc(COc2nc(N)nc3[nH]cnc23)c1` [compound 90], the IC50 is 3.02 nM.
With `CCCOC(=O)n1cc2c(OCc3cc(Br)cs3)nc(N)nc2n1` [compound 411], the half-maximal inhibitory concentration (IC50) was 2.82 nM.
